Patent publication US10168342B2, “Lipid probes and uses thereof” (THE SCRIPPS RESEARCH INSTITUTE, priority 2015, dated 2019)
Read-outs that look alike come from different tables or passages of the source.

Key:
[1] = target: T1, AEA-DA lipid probe targets in Neuro2a cells (Mus musculus, UniProt D3YZZ5)
T1 sequence (D3YZZ5 35-224): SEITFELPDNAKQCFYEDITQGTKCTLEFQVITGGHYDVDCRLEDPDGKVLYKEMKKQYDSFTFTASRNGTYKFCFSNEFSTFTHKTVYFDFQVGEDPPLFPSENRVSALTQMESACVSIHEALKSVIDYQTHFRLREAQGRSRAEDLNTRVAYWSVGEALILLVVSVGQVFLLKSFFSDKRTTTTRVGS

[2] = target: AEA-DA lipid probe targets in Neuro2a cells (Mus musculus, UniProt P06795)
[3] = target: T2, AEA-DA lipid probe targets in Neuro2a cells (Mus musculus, UniProt P09103)
T2 sequence (P09103 20-509): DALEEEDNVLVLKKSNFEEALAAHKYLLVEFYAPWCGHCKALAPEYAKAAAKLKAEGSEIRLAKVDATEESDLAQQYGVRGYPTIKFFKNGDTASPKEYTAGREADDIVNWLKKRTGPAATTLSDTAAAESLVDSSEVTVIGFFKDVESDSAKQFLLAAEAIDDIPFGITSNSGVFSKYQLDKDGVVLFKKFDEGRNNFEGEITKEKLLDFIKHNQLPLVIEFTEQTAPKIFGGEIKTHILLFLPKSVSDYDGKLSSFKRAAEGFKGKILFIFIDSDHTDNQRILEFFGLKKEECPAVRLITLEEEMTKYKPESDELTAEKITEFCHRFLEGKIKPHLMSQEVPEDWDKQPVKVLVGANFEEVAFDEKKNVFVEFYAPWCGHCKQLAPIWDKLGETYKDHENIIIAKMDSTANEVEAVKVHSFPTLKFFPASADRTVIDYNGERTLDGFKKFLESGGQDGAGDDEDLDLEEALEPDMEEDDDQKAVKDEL

[4] = target: T3, AEA-DA lipid probe targets in Neuro2a cells (Mus musculus, UniProt Q3U9G9)
T3 sequence (Q3U9G9 1-626): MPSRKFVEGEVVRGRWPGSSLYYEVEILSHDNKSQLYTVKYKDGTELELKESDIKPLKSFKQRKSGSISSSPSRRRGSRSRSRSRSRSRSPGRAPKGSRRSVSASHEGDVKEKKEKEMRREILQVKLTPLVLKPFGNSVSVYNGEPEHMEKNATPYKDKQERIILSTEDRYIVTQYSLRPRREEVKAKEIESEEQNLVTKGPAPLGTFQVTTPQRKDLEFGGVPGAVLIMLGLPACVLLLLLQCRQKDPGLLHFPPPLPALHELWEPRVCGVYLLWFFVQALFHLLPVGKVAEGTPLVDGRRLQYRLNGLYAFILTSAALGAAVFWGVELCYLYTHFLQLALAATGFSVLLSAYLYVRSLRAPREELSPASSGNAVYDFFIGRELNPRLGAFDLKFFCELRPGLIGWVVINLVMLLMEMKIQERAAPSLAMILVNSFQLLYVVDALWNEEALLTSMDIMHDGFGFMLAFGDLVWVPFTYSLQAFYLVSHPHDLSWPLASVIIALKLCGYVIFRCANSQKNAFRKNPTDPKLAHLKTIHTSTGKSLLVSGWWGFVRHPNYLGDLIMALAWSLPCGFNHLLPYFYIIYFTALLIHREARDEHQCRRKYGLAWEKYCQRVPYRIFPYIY

[5] = target: T4, AEA-DA lipid probe targets in Neuro2a cells (Mus musculus, UniProt Q8VHE0)
T4 sequence (Q8VHE0 1-760): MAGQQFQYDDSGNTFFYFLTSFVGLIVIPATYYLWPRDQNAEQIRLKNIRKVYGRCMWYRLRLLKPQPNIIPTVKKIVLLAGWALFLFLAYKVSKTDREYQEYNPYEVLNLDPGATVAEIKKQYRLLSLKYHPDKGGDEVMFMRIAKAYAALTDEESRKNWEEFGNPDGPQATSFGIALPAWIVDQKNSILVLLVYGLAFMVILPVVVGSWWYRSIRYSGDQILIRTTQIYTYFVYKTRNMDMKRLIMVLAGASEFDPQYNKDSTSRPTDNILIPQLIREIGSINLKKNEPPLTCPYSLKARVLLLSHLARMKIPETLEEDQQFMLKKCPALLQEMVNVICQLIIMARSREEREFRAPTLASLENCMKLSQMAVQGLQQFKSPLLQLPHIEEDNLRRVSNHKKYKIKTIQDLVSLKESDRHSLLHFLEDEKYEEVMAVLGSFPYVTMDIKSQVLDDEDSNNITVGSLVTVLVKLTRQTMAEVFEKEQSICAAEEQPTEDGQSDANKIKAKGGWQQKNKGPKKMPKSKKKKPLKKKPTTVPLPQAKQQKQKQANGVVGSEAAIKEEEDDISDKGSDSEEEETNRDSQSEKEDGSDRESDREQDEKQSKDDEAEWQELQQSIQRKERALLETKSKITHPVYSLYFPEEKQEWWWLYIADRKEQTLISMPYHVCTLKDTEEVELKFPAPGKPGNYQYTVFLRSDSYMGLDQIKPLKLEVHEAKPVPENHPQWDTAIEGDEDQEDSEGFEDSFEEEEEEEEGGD

[6] = target: T5, AEA-DA lipid probe targets in Neuro2a cells (Mus musculus, UniProt Q99J56)
T5 sequence (Q99J56 1-251): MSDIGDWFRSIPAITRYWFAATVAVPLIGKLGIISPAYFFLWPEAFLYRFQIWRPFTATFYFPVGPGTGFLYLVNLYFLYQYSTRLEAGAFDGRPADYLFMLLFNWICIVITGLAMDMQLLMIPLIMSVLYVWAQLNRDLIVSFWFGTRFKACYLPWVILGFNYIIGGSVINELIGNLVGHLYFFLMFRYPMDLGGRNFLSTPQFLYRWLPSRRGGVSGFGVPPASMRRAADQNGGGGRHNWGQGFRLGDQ

[7] = target: AEA-DA lipid probe targets in Neuro2a cells (Mus musculus, UniProt Q9Z0V8)
[8] = target: AEA-DA lipid probe targets in Neuro2a cells (Mus musculus, UniProt G5E895); conditions: competitor 25 μM
Chain of AEA-DA lipid probe targets in Neuro2a cells (Mus musculus, UniProt G5E895) (G5E895 1-316): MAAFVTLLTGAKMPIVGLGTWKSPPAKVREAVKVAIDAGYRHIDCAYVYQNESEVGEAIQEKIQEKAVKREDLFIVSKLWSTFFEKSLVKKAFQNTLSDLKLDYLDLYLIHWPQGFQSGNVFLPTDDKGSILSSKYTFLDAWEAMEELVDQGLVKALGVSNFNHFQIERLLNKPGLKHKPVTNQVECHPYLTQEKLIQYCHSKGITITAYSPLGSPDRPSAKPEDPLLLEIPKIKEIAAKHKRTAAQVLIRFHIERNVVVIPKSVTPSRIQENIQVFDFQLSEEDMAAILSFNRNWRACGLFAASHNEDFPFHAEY

Chain of AEA-DA lipid probe targets in Neuro2a cells (Mus musculus, UniProt P06795) (P06795 whole entry): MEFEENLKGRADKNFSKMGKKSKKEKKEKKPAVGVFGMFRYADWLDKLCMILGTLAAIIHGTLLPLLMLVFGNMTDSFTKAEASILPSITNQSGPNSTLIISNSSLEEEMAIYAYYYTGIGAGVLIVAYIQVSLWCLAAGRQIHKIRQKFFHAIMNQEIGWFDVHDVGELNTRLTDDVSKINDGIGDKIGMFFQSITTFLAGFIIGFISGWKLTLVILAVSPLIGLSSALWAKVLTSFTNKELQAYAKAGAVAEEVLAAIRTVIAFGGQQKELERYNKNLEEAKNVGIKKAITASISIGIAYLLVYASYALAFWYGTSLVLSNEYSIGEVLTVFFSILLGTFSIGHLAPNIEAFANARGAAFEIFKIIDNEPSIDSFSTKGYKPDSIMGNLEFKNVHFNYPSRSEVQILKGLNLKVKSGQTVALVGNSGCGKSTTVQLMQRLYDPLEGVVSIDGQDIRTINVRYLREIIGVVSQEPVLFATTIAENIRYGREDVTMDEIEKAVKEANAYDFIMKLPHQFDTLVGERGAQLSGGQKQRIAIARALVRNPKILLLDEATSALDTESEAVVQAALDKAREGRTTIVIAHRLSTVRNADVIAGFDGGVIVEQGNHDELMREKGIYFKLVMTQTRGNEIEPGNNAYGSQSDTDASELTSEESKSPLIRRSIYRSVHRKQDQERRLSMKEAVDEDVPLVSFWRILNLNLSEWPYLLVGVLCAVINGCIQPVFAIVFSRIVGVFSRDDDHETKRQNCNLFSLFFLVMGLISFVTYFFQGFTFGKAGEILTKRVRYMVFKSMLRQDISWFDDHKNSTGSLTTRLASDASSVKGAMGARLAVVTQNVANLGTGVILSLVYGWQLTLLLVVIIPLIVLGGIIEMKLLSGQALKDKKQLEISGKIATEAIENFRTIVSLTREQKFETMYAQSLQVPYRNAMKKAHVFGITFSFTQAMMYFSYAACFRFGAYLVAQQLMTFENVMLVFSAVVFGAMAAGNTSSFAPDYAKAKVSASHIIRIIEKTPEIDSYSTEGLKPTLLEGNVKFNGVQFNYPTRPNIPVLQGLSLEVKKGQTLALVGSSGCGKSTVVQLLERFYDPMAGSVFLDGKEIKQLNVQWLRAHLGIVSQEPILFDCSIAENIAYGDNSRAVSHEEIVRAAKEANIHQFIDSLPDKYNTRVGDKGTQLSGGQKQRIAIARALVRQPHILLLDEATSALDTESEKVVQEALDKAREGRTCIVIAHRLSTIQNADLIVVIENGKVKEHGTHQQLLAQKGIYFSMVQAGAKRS
Chain of AEA-DA lipid probe targets in Neuro2a cells (Mus musculus, UniProt Q9Z0V8) (Q9Z0V8 whole entry): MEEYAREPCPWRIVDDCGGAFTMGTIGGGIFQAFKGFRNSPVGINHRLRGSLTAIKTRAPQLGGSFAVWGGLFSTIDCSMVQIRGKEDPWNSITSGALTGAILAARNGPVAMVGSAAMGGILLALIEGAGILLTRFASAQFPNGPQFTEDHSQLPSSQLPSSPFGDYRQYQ

Row | Compound | SILAC ratio, Tmed7 ([1]; competitor 25 μM) | SILAC ratio, Akr1b10 [8] | SILAC ratio, Abcb1b ([2]; competitor 25 μM) | SILAC ratio P4hb ([3]; competitor 25 μM) | SILAC ratio, Lbr ([4]; competitor 25 μM) | SILAC ratio Sec63 ([5]; competitor 25 μM) | SILAC ratio, Derl1 ([6]; competitor 25 μM) | SILAC ratio, Timm17a ([7]; competitor 25 μM) | other results
1 | CCCCC/C=C\C/C=C\C/C=C\C/C=C\CCCC(=O)NCCO [AEA, anandamide, reference compound] | – | – | – | – | – | – | – | – | SILAC ratio, Tmed7 ([1]; competitor 200 μM): 1.5; SILAC ratio, Abcb1b ([2]; competitor 200 μM): 2.3; SILAC ratio P4hb ([3]; competitor 200 μM): 1.2; SILAC ratio, Lbr ([4]; competitor 200 μM): 2.0; SILAC ratio Sec63 ([5]; competitor 200 μM): 1.5; SILAC ratio, Derl1 ([6]; competitor 200 μM): 1.8; SILAC ratio, Timm17a ([7]; competitor 200 μM): 1.5
2 | O=C(/C=C/c1cccnc1)NCCCCC1CCN(C(=O)c2ccccc2)CC1 [FK-866, reference compound] | 1.1 | 1.9 | 5.4 | 1.4 | 1.0 | 1.1 | 1.3 | 1.1 | –
3 | CN1CCN(C(=O)c2c(-c3ccccc3)c3cc([N+](=O)[O-])ccc3n2C)CC1 [KML110, (1-Methyl-5-nitro-3-phenyl-1H-indol-2-yl)(4-methylpiperazin-1-yl)methanone] | 1.6 | 3.9 | 5.7 | 1.8 | 1.2 | 1.5 | 1.2 | 1.5 | –
4 | CN1CCN(C(=O)c2[nH]c3ccc([N+](=O)[O-])cc3c2-c2ccccc2)CC1 [MJN228, (4-Methylpiperazin-1-yl)(5-nitro-3-phenyl-1H-indol-2-yl)methanone] | 1.5 | 2.8 | 4.0 | 1.5 | 1.3 | 1.5 | 1.4 | 1.4 | SILAC ratio, Tmed7 ([1]; competitor 10 μM): 1.0; SILAC ratio, Tmed7 ([1]; competitor 100 μM): 2.1; SILAC ratio, Abcb1b ([2]; competitor 10 μM): 2.6; SILAC ratio, Abcb1b ([2]; competitor 50 μM): 9.4; SILAC ratio, Abcb1b ([2]; competitor 100 μM): 20.0; SILAC ratio P4hb ([3]; competitor 10 μM): 1.3; SILAC ratio P4hb ([3]; competitor 50 μM): 2.0; SILAC ratio P4hb ([3]; competitor 100 μM): 2.2; SILAC ratio, Lbr ([4]; competitor 10 μM): 1.1; SILAC ratio, Lbr ([4]; competitor 50 μM): 1.5; SILAC ratio, Lbr ([4]; competitor 100 μM): 1.8; SILAC ratio Sec63 ([5]; competitor 10 μM): 1.4; SILAC ratio Sec63 ([5]; competitor 50 μM): 1.8; SILAC ratio Sec63 ([5]; competitor 100 μM): 1.8; SILAC ratio, Derl1 ([6]; competitor 10 μM): 1.2; SILAC ratio, Derl1 ([6]; competitor 50 μM): 1.7; SILAC ratio, Derl1 ([6]; competitor 100 μM): 1.8; SILAC ratio, Timm17a ([7]; competitor 10 μM): 1.1; SILAC ratio, Timm17a ([7]; competitor 50 μM): 1.4; SILAC ratio, Timm17a ([7]; competitor 100 μM): 2.7
5 | C=CCN(C)CCCCCCOc1ccc(C(=O)c2ccc(Br)cc2)c(F)c1 [Ro 48-8071, reference compound] | 1.1 | 1.5 | 1.7 | 1.0 | 1.9 | 1.0 | 1.1 | 2.7 | –
